Measured values: patent publication US8513233B2, “Pyrimidinyl-propionic acid derivatives and their use as PPAR agonists” (Shanghai Institute of Materia Medica, CAS, priority 2007, dated 2013)

Columns and labels:
Type in all cases: cell-based
[1] = target: T1, PPAR-γ (Homo sapiens, UniProt P37231); experiment: Transient transfection and transcription assay (luciferase reporter, U2OS cells); conditions: 24 h treatment
T1 construct: expressed in transfected cells; host or cells: U2OS cells, transiently transfected with pcDNA3.1 expression vectors (FuGene6)
T1 sequence (P37231 1-505): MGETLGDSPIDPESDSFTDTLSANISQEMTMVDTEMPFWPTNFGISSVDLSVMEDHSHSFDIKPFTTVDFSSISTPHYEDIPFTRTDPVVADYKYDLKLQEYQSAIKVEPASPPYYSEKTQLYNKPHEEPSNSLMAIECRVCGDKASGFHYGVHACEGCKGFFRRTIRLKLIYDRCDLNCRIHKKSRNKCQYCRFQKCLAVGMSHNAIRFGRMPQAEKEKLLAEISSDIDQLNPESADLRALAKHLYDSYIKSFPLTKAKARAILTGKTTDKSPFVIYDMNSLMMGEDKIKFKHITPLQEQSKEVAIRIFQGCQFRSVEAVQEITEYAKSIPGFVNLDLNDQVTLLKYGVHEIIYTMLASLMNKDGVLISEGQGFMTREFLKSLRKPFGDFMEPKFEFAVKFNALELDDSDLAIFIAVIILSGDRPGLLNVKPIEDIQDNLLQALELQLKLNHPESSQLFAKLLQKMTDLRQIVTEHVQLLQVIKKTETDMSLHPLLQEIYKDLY
T1 sequence (P19793 1-462 partner): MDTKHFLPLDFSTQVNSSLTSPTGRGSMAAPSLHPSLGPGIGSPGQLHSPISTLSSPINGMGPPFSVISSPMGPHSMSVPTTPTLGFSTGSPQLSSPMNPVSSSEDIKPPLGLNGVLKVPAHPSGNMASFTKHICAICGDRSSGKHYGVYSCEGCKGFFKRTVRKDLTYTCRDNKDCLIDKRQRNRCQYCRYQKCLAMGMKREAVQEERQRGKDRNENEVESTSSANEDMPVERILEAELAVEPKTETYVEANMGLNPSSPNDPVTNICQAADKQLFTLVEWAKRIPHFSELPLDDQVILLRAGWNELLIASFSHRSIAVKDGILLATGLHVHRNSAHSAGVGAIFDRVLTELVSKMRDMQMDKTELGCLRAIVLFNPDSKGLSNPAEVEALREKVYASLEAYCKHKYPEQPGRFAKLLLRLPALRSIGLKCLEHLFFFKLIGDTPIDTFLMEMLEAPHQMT
Description: cDNAs for Human RXR, PPAR were obtained by RTPCR from the human liver or adipose tissues. Amplified cDNAs were cloned into pcDNA3.1 expression vector and the inserts were confirmed by sequencing. U2OS cells were cultured in McCoy's 5A with 10% heat-inactivated fetal bovine serum in a humidified 5% CO2 atmosphere at 37° C. Cells were seeded in 96-well plates the day before transfection to give a confluence of 50-80% at transfection. A total of 60 ng of DNA containing 10 ng of hRXR, 10 ng of pCMV Gal, 10 ng of nuclear receptor expression vectors and 30 ng of the corresponding reporters were cotransfected per well using FuGene6 transfection reagent according to the manufacturer's instructions. […] The final concentration of DMSO in culture medium was 0.1%. […] Luciferase activity was monitored using the luciferase assay kit according to the manufacturers instructions. Light emission was read in a Labsystems Ascent Fluoroskan reader. To measure galactosidase activity to normalize the luciferase data, 50 IL of supernatant from each transfection lysate was transferred to a new microplate. Galactosidase assays were performed in the microwell plates using a kit from Promega and read in a microplate reader. Compounds were tested in five concentrations ranging from 0.01 to 10 μM. […] The results were expressed as means (SD).

[2] = system: SPC-A1; experiment: Growth inhibition, modified MTT assay, SPC-A1; conditions: SPCA1, mean of 3 independent tests
Description: (§1) The growth inhibition was evaluated by the modified MTT assay. Briefly, the cells were seeded at 1×10^4 cells/well in 96-well plates (Falcon, Calif., USA), and incubated for 24 h in […] culture media with 10% FCS. The media were then replaced by serum-free medium. After 24 h, the media were placed in triplicate with grade concentrations of compounds. As controls, the cells were cultivated in DMEM/F12 only. The cells were then treated by MTT (Sigma, USA) assay, […] (5 g/L) for 4 h. After the removal of the supernatant, the purple-blue sediment was dissolved in 100 μL/well DMSO, and the optical densities were read on the multi-well scanning spectrophotometer (Labsystems Dragon, Finland) at 492 nm (A492). The growth inhibition rate (GIR) of the treated cells was calculated using Equation: GIR(%)={1−[A490/A490(control)]}×100% The results were also converted to IC50 (the compound concentration required for 50% growth inhibition of tumor cells), which were calculated by using the sigmoidal fitting model by the Origin 7.0 software (OriginLab, Northampton, Mass., USA). The mean IC50 was determined from the results of 3 independent tests.

[3] = system: T24; experiment: Growth inhibition, modified MTT assay, T24; conditions: Homo sapiens, T-24, mean of 3 independent tests
Description: as §1

[4] = system: HepG2; experiment: Growth inhibition, modified MTT assay, HepG2; conditions: Homo sapiens, mean of 3 independent tests
Description: as §1

[5] = system: MCF-7; experiment: Growth inhibition, modified MTT assay, MCF-7; conditions: Homo sapiens, MCF7; MCF-7, MTT, mean of 3 independent tests
Description: as §1

SMILES | EC50 [1] [µM] | IC50 [3] [µM] | IC50 [4] [µM] | IC50 [5] [µM] | IC50 [2] [µM]
C[C@@](Cc1ccc(Oc2cc(N3CCN(Cc4ccccc4)CC3)nc(N)n2)cc1)(Oc1ccccc1)C(=O)O [Compound 3, S-3-{4-[2-Amino-6-(4-benzyl-piperazin-1-yl)-pyrimidin-4-yloxy]-phenyl}-2-methyl-2-phenoxy-propionic acid] | 3.31 |  |  |  | 
CC(Cc1ccc(Oc2cc(N3CCN(Cc4cccc5ccccc45)CC3)nc(N)n2)cc1)(Oc1ccccc1)C(=O)O (stereo not drawn) [Compound 6, 3-{4-[2-Amino-6-(4-(naphthalen-1-ylmethyl)-piperazin-1-yl)-pyrimidin-4-yloxy]-phenyl}-2-methyl-2-phenoxy-propionic acid] | 3.39 | 36.3 | 24.8 | 42.2 | 49.8
Cc1cccc(CN2CCN(c3cc(Oc4ccc(CC(C)(Oc5ccccc5)C(=O)O)cc4)nc(N)n3)CC2)c1 (stereo not drawn) [Compound 9, 3-{4-{2-Amino-6-[4-(3-methyl-benzyl)-piperazin-1-yl]-pyrimidin-4-yloxy}-phenyl}-2-methyl-2-phenoxy-propionic acid] | 4.17 | > 50 | > 50 | 38 | 48.9
CC(Cc1ccc(Oc2cc(N3CCN(C(=O)c4ccccc4)CC3)nc(N)n2)cc1)(Oc1ccccc1)C(=O)O (stereo not drawn) [Compound 21, 3-{4-[2-Amino-6-(4-benzoyl-piperazin-1-yl)-pyrimidin-4-yloxy]-phenyl}-2-methyl-2-phenoxy-propionic acid] |  | > 50 | > 50 | > 50 | > 50
CC(Cc1ccc(Oc2cc(N3CCN(c4cccc(Cl)c4)CC3)nc(N)n2)cc1)(Oc1ccccc1)C(=O)O (stereo not drawn) [Compound 23, 3-{4-{2-Amino-6-[4-(3-chloro-phenyl)-piperazin-1-yl]-pyrimidin-4-yloxy}-phenyl}-2-methyl-2-phenoxy-propionic acid] | 4.37 | 15.2 | 20 | 11.8 | 12
CC(Cc1ccc(Oc2cc(N3CCN(CC4CCCCC4)CC3)nc(N)n2)cc1)(Oc1ccccc1)C(=O)O (stereo not drawn) [Compound 27, 3-{4-[2-Amino-6-(4-cyclohexylmethyl-piperazin-1-yl)-pyrimidin-4-yloxy]-phenyl}-2-methyl-2-phenoxy-propionic acid] | 5.37 | > 50 | 44.5 | > 50 | > 50
CC(Cc1ccc(Oc2cc(N3CCN(Cc4ccccc4)CC3)nc(N)n2)cc1)(Oc1ccc(-c2ccccc2)cc1)C(=O)O (stereo not drawn) [Compound 29, 3-{4-[2-Amino-6-(4-benzyl-piperazin-1-yl)-pyrimidin-4-yloxy]-phenyl}-2-(biphenyl-4-yloxy)-2-methyl-propionic acid] | 2.57 | 40 | > 50 | > 50 | 34.1
CC(Cc1ccc(Oc2cc(N3CCN(Cc4ccccn4)CC3)nc(N)n2)cc1)(Oc1ccccc1)C(=O)O (stereo not drawn) [Compound 36, 3-{4-[2-Amino-6-(4-pyridin-2-ylmethyl-piperazin-1-yl)-pyrimidin-4-yloxy]-phenyl}-2-methyl-2-phenoxy-propionic acid] |  | > 50 | > 50 | > 50 | > 50

Now from value to molecule, other results behind:

EC50 [1] [µM] | IC50 [3] [µM] | IC50 [4] [µM] | IC50 [5] [µM] | SMILES | IC50 [2] [µM]
5.75 |  |  |  | C[C@@](Cc1ccc(Oc2cc(N3CCN(Cc4ccccc4)CC3)nc(N)n2)cc1)(Oc1ccccc1)C(=O)O (stereo in doubt) [Compound 4, R-3-{4-[2-Amino-6-(4-benzyl-piperazin-1-yl)-pyrimidin-4-yloxy]-phenyl}-2-methyl-2-phenoxy-propionic acid] | 
4.27 | 29.1 | 38.1 | 15.1 | CC(Cc1ccc(Oc2cc(N3CCN(Cc4cccc(C(F)(F)F)c4)CC3)nc(N)n2)cc1)(Oc1ccccc1)C(=O)O (stereo not drawn) [Compound 10, 3-{4-{2-Amino-6-[4-(3-trifluoromethyl-benzyl)-piperazin-1-yl]-pyrimidin-4-yloxy}-phenyl}-2-methyl-2-phenoxy-propionic acid] | 25.1
6.03 | 12.5 | 26.5 | 7.9 | CC(Cc1ccc(Oc2cc(N3CCN(Cc4ccc(C(C)(C)C)cc4)CC3)nc(N)n2)cc1)(Oc1ccccc1)C(=O)O (stereo not drawn) [Compound 14, 3-{4-{2-Amino-6-[4-(4-tert-butyl-benzyl)-piperazin-1-yl]-pyrimidin-4-yloxy}-phenyl}-2-methyl-2-phenoxy-propionic acid] | 8.6
5.89 | 20.1 | 32.6 | 35.7 | CC(Cc1ccc(Oc2cc(N3CCN(c4ncccn4)CC3)nc(N)n2)cc1)(Oc1ccccc1)C(=O)O (stereo not drawn) [Compound 20, 3-{4-[2-Amino-6-(4-pyrimidin-2-yl-piperazin-1-yl)-pyrimidin-4-yloxy]-phenyl}-2-methyl-2-phenoxy-propionic acid] | 29.1
4.68 | 22.6 | 29.7 |  | CC(Cc1ccc(Oc2cc(N3CCN(c4ccccc4)CC3)nc(N)n2)cc1)(Oc1ccccc1)C(=O)O (stereo not drawn) [Compound 22, 3-{4-[2-Amino-6-(4-phenyl-piperazin-1-yl)-pyrimidin-4-yloxy]-phenyl}-2-methyl-2-phenoxy-propionic acid] | 32.5
 | 39.4 | > 50 | 38.2 | CCCc1ccc(C(=O)N2CCN(c3cc(Oc4ccc(CC(C)(Oc5ccccc5)C(=O)O)cc4)nc(N)n3)CC2)cc1 (stereo not drawn) [Compound 24, 3-{4-{2-Amino-6-[4-(4-propyl-benzoyl)-piperazin-1-yl]-pyrimidin-4-yloxy}-phenyl}-2-methyl-2-phenoxy-propionic acid] | 43.7
 | > 50 | > 50 | > 50 | COc1ccccc1C(=O)N1CCN(c2cc(Oc3ccc(CC(C)(Oc4ccccc4)C(=O)O)cc3)nc(N)n2)CC1 (stereo not drawn) [Compound 25, 3-{4-{2-Amino-6-[4-(2-methoxy-benzoyl)-piperazin-1-yl]-pyrimidin-4-yloxy}-phenyl}-2-methyl-2-phenoxy-propionic acid] | > 50
 | 38.8 | 35.6 | 23.3 | CC(Cc1ccc(Oc2cc(N3CCN(Cc4cccc(C#N)c4)CC3)nc(N)n2)cc1)(Oc1ccccc1)C(=O)O (stereo not drawn) [Compound 26, 3-{4-{2-Amino-6-[4-(3-cyano-benzyl)-piperazin-1-yl]-pyrimidin-4-yloxy}-phenyl}-2-methyl-2-phe noxy-propionic acid] | 37.7
